Where two headings read alike, the source gives them in different places. Positions of bridges follow the written chain, without caps; N, C: chain ends. Non-standard residues stand in square brackets, D forms with d. Residues, ends and D or L forms follow the SMILES beside them. ξ: configuration not given here. Dab = NCC[C@H](N)C(=O)O; ξT = CC(O)C(N)C(=O)O
Key:
in vitro [1] = assay type: cell-based
Method: (§1) The cytotoxicity of the depsipeptides to HELA cells (Acc57) and COS-7 cells (CRL-1651) was determined using the MTT reduction assay (T. Mossman, J. Immunol. Meth. 1983, 65, 55-63; M. V. Berridge, A. S. Tan, Arch. Biochem. Biophys. 1993, 303, 474-482). Briefly, the method was as follows: 7000 HELA cells/well and 4500 COS-7 cells/well were seeded and grown in 96-well microtiter plates for 24 h at 37° C. at 5% CO2. Thereafter, time zero (Tz) was determined by MTT reduction (see below). The supernatant of the remaining wells was discarded, and fresh medium and compounds in serial dilutions (12.5, 25 and 50 μM, triplicates) were pipetted into the wells. After incubation of the cells for 48 h at 37° C. at 5% CO2 the supernatant was discarded again and 100 μL MTT reagent (0.5 mg/mL in RPMI1640 and DMEM, respectively)/well was added. Following incubation at 37° C. for 2 h the media were aspirated and the cells were spiked (100 μL isopropanol/well). The absorbance of the solubilized formazan was measured at 595 nm (OD595peptide). For each concentration averages were calculated from triplicates. The percentage of growth was calculated as follows: (OD595peptide-OD595Tz-OD595Empty well)/(OD595Tz-OD595Empty well)×100%. The GI50 (Growth Inhibition) concentrations were calculated for each depsipeptide by using a trend line function for the concentrations (50, 25, 12.5 and 0 μM), the corresponding percentages and the value 50, (=TREND (C50:C0, %50:%0, 50).

[2] = Plasma stability in human plasma; details: human plasma, 37° C., sampling up to 240 min
Method: (§2) The stability of the peptides in human and mouse plasma was determined by applying the following method: 315 μL/deep well of freshly thawed human plasma (Basler Blutspende-dienst) and mouse plasma (Harlan Sera-Lab, UK), respectively, were spiked with 35 μL/well of compound in PBS (100 μM, triplicate) and incubated at 37° C. […] Following shaking for 2 min the occurred suspensions were filtrated by vacuum and finally, 100 μL of each filtrate were transferred to a propylene microtiter plate, and analyzed by LC/MS as follows: Column: Waters, XBridge C18, mobile phases: (A) water+0.1% formic acid and (B) acetonitrile/water, 95/5 (v/v)+0.1% formic acid, gradient: 5%-100% (B) in 2 minutes, electrospray ionization, MRM detection (triple quadrupole). The peak areas were determined and triplicate values are averaged. The stability is expressed in percent of the initial value at t=0. (tx/to×100). By using the TREND function of EXCEL (Microsoft Office 2003) T1/2 were determined.

[3] = tested on: human red blood cells (hRBC); details: red cells of human, 1 h
Method: The peptides were tested for their hemolytic activity against human red blood cells (hRBC). Fresh hRBC were washed three times with phosphate buffered saline (PBS) and centrifuged for 10 min at 2000×g. Compounds (100 μM) were incubated with 20% hRBC (v/v) for 1 h at 37° C. The final erythrocyte concentration was approximately 0.9×10^9 cells/mL. A value of 0% and 100% cell lyses, respectively, was determined by incubation of hRBC in the presence of PBS alone and 0.1% Triton X-100 in H2O, respectively. The samples were centrifuged, the supernatants were 20-fold diluted in PBS buffer and the optical densities (OD) were measured at 540 nm.
Percent hemolysis was calculated as follows: (OD540peptide/OD540H2O)×100%.

in vitro [4] = assay type: cell-based; remark: listed apart in the source
Method: as §1

human CXCR4 = target: T1, human CXCR4 (Homo sapiens, UniProt P61073); assay: Ca2+-assay: CXCR4-antagonizing activity (SDF-1 induced calcium mobilization); assay type: cell-based; details: mouse pre-B cell line 300-19 stably transfected with human CXCR4, read-out: IC50% [nM] ± SD, CXCR4 receptor
T1 construct: expressed in transfected cells; host or cells: mouse pre-B cell line 300-19
From the text: 2.3. Ca^2+-Assay: CXCR4-Antagonizing Activity of the Peptides
Increases in intracellular calcium were monitored using a Flexstation 384 (Molecular Devices, Sunnyvale, Calif.) to assay the depsipeptides for CXCR4 antagonism in a mouse pre-B cell line 300-19 stably transfected with human CXCR4 (E. Oberlin, A. Amara, F. Bachelerie, C. Bessia, J.-L. Virelizier, F. Arenzana-Seisdedos, O. Schwartz, J.-M. Heard, I. Clark-Lewis, D. F. Legler, M. Loetscher, M. Baggiolini, B. Moser, Nature 1996, 382, 833-835; M. Loetscher, T. Geiser, T. O'Reilly, R. Zwalen, M. Baggiolini, B. Moser, J. Biol. Chem. 1994, 269, 232-237; M. D'Apuuo, A. Rolink, M. Loetscher, J. A. Hoxie, I. Clark-Lewis, F. Melchors, M. Baggiolini, B. Moser, Eur. J. Immunol. 1997, 27, 1788-1793). The cells were batch loaded with the Calcium 4 Assay kit (Molecular Devices) in assay buffer (Hanks Balanced salt solution [HBSS], 20 mM HEPES, pH 7.4, 0.1% BSA) for 1 h at room temperature and labeled cells were dispensed into black 96 well assays plates (Costar No. 3603). Calcium mobilization induced by stromal-derived factor-1 (SDF-1) was measured in the Flexstation 384 (excitation: 485 nm; emission: 525 nm) for 90 seconds. Antagonist activity of peptides was determined by spiking the cells with compounds prior to SDF-1 addition. Dose response curves (compound concentration versus % maximum response for SDF-1) were determined for each antagonist and IC50 values were calculated by fitting the data to a four parameter logistic equation using SoftmaxPro 4.8 (Molecular Devices).

[5] = Plasma stability in mouse plasma; details: mouse plasma, 37° C., sampling up to 240 min
Method: as §2

T1 sequence (P61073 whole entry): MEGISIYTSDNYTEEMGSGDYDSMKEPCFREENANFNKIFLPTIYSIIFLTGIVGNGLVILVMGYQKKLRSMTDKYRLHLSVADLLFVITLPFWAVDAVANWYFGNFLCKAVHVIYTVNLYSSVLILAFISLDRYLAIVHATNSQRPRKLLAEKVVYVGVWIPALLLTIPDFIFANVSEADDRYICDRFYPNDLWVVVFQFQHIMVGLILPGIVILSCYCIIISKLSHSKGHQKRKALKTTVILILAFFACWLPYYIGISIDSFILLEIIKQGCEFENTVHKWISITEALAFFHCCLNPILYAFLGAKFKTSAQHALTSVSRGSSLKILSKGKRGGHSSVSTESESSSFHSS

Row | Compound | GI50 (in vitro [1]; human) [µM] | Plasmastability human pl. T1/2 [2] [h] | Hemolysis at 100 μM [3] [%] | GI50 (in vitro [4]; African green monkey) [µM] | IC50 (human CXCR4) [nM] | Plasmastability mouse pl. T1/2 [5] [h] | GI50 (in vitro [1]) [µM] | GI50 (in vitro [4]) [µM]
1 | C[C@@H]1NC(=O)[C@H](Cc2c[nH]cn2)NC(=O)[C@H](Cc2ccc(O)cc2)NC(=O)[C@@H]2CCCN2C(=O)[C@@H](CC2CCCCC2)NC(=O)[C@H](CCCCN)NC(=O)[C@H](CCC(N)=O)NC(=O)[C@H](Cc2ccc(O)cc2)NC(=O)[C@@H]2CSSC[C@H](NC1=O)C(=O)N[C@@H](CO)C(=O)N[C@@H](C)C(=O)N1CCC[C@@H]1C(=O)N[C@@H](CCN)C(=O)N[C@@H](CCCNC(=N)N)C(=O)N[C@@H](Cc1ccc(O)cc1)C(=O)N2 [Ex. 1] | > 50 | 4 | 0 | > 50 | 1.3 ± 0.4 | 4 | – | –
2 | CC[C@@H](C)[C@@H]1C(=O)N2CCC[C@H]2C(=O)N[C@@H](Cc2ccc(O)cc2)C(=O)N[C@@H](Cc2c[nH]cn2)C(=O)N[C@@H](C)C(=O)N[C@H]2CSSC[C@H](NC(=O)[C@H](Cc3ccc(O)cc3)NC(=O)[C@H](CCCNC(=N)N)NC(=O)[C@H](CCN)NC(=O)[C@H]3CCCN3C(=O)[C@H](C)NC(=O)[C@H](CO)NC2=O)C(=O)N[C@@H](Cc2ccc(O)cc2)C(=O)N[C@@H](CCC(N)=O)C(=O)N[C@@H](CCCCN)C(=O)N1C [compound 2] | > 50 | 4 | 0.6 | > 50 | 1.22 ± 1 | 4 | – | –
3 | C[C@@H]1NC(=O)[C@H](Cc2c[nH]cn2)NC(=O)[C@H](Cc2ccc(O)cc2)NC(=O)[C@@H]2CCCN2C(=O)[C@@H](Cc2cn(Cc3ccccc3)cn2)NC(=O)[C@H](CCCCN)NC(=O)[C@H](CCC(N)=O)NC(=O)[C@H](Cc2ccc(O)cc2)NC(=O)[C@@H]2CSSC[C@H](NC1=O)C(=O)N[C@@H](CO)C(=O)N[C@@H](C)C(=O)N1CCC[C@@H]1C(=O)N[C@@H](CCN)C(=O)N[C@@H](CCCNC(=N)N)C(=O)N[C@@H](Cc1ccc(O)cc1)C(=O)N2 [compound 5] | > 50 | 4 | 1 | > 50 | 0.92 ± 0.2 | 4 | – | –
4 | C[C@@H]1NC(=O)[C@H](Cc2c[nH]cn2)NC(=O)[C@H](Cc2ccc(O)cc2)NC(=O)[C@@H]2CCCN2C(=O)[C@@H](Cc2ccncc2)NC(=O)[C@H](CCCCN)NC(=O)[C@H](CCC(N)=O)NC(=O)[C@H](Cc2ccc(O)cc2)NC(=O)[C@@H]2CSSC[C@H](NC1=O)C(=O)N[C@@H](CO)C(=O)N[C@@H](C)C(=O)N1CCC[C@@H]1C(=O)N[C@@H](CCN)C(=O)N[C@@H](CCCNC(=N)N)C(=O)N[C@@H](Cc1ccc(O)cc1)C(=O)N2 [compound 6] | > 50 | 4 | 2.4 | > 50 | 0.17 ± 0.1 | 4 | – | –
5 | C[C@@H]1NC(=O)[C@H](Cc2c[nH]cn2)NC(=O)[C@H](Cc2ccc(O)cc2)NC(=O)[C@@H]2CCCN2C(=O)[C@@H](Cc2ccc(O)cc2)N(C)C(=O)[C@H](CCCCN)NC(=O)[C@H](CCC(N)=O)NC(=O)[C@H](Cc2ccc(O)cc2)NC(=O)[C@@H]2CSSC[C@H](NC1=O)C(=O)N[C@@H](CO)C(=O)N[C@@H](C)C(=O)N1CCC[C@@H]1C(=O)N[C@@H](CCN)C(=O)N[C@@H](CCCNC(=N)N)C(=O)N[C@@H](Cc1ccc(O)cc1)C(=O)N2 [compound 7] | > 50 | 4 | 0.6 | > 50 | 0.33 ± 0.1 | 4 | – | –
6 | C[C@@H]1NC(=O)[C@H](Cc2c[nH]cn2)NC(=O)[C@H](Cc2ccc(O)cc2)NC(=O)[C@@H]2CCCN2C(=O)[C@@H](CCCCN)N(C)C(=O)[C@H](CCCCN)NC(=O)[C@H](CCC(N)=O)NC(=O)[C@H](Cc2ccc(O)cc2)NC(=O)[C@@H]2CSSC[C@H](NC1=O)C(=O)N[C@@H](CO)C(=O)N[C@@H](C)C(=O)N1CCC[C@@H]1C(=O)N[C@@H](CCN)C(=O)N[C@@H](CCCNC(=N)N)C(=O)N[C@@H](Cc1ccc(O)cc1)C(=O)N2 [compound 8] | > 50 | 4 | 0.3 | > 50 | 0.31 ± 0.2 | 4 | – | –
7 | C[C@@H]1NC(=O)[C@H](Cc2c[nH]cn2)NC(=O)[C@H](Cc2ccc(O)cc2)NC(=O)[C@@H]2CCCN2C(=O)CN(CCCCN)C(=O)[C@H](CCCCN)NC(=O)[C@H](CCC(N)=O)NC(=O)[C@H](Cc2ccc(O)cc2)NC(=O)[C@@H]2CSSC[C@H](NC1=O)C(=O)N[C@@H](CO)C(=O)N[C@@H](C)C(=O)N1CCC[C@@H]1C(=O)N[C@@H](CCN)C(=O)N[C@@H](CCCNC(=N)N)C(=O)N[C@@H](Cc1ccc(O)cc1)C(=O)N2 [compound 9] | > 50 | 4 | 2.1 | > 50 | 0.09 ± 0.05 | 4 | – | –
8 | CC(O)C1NC(=O)[C@@H]2CSSC[C@H](NC(=O)[C@H](Cc3ccc(O)cc3)NC(=O)[C@H](CCCNC(=N)N)NC(=O)[C@H](CCN)NC(=O)[C@H]3CCCN3C(=O)[C@H](C)NC1=O)C(=O)N[C@@H](Cc1ccc(O)cc1)C(=O)N[C@@H](CCC(N)=O)C(=O)N[C@@H](CCCCN)C(=O)N1CCC[C@@H]1C(=O)N1CCC[C@H]1C(=O)N[C@@H](Cc1ccc(O)cc1)C(=O)N[C@@H](Cc1c[nH]cn1)C(=O)N[C@@H](C)C(=O)N2 (some centres unmarked) [compound 17] (cyclo(YHAC[ξT]A[dP][Dab]RYCYQK[dP]P); disulfide 4-11) | – | 4 | 1 | – | – | 4 | > 50 | > 50

Source: patent publication US8865656B2, “Beta-hairpin peptidomimetics having CXCR4 antagonizing activity” (Polyphor AG, priority 2009, dated 2014)
